In one data set the target is Native IKr channels. As to conditions: ferret cardiac myocytes; Liu et al., 1996; read-out: Ki, E-4031, native IKr channels; cited from earlier work.
Data set [1] concerns the target T1, HERG channels (Homo sapiens, UniProt Q12809). Kind of data set: cell-based. Here is the method: (§1) Ionic conditions. Activation of channels formed only with HERG or containing both rMiRP1 and HERG subunits was assessed at various Ca^2+ concentrations by protocols 1 and 2. […] Initial characterizations were thus performed in a “low Ca^2+/high K^+” bath solution (in mM): 95 KCl, 5 NaCl, 1 MgCl2, 0.3 CaCl2 and 10 HEPES, pH 7.6 with NaOH. Other studies use solutions based on levels of ionized species found in human plasma (in mM): 4 KCl, 95 NaCl, 0.75 MgCl2, 1 CaCl2 and 10 HEPES, pH 7.6 with NaOH. For K^+ titrations in FIG. 4, NaCl and KCl were isotonically substituted. For cell-attached patches, pipette solution was (in mM): 100 KCl, 1 MgCl2, 0.3 CaCl2, 10 HEPES, pH 7.5 with KOH. For whole cell, pipettes contained (in mM): 100 KCl, 1 MgCl2, 10 HEPES, 2 EGTA, pH 7.5 with KOH.

Data set [2] has as its target wild type hMiRP1/HERG channels (Homo sapiens, UniProt Q12809). As to the kind of experiment: Drug blockade of wild type hMiRP1/HERG channels expressed in CHO cells. Here is the method: as §1
Another data set addresses Q9E-hMiRP1 channels (Homo sapiens, UniProt Q12809). As to the kind of experiment: Clarithromycin blockade of Q9E-hMiRP1/HERG channels in CHO cells. The settings on record: for Ki: clarithromycin blockade. As for the experimental part: Wild type hMiRP1/HERG channels and those formed with Q9E, M54T, I57T or T8A-hMiRP1 were compared by transient expression in CHO cells using 1 mM Ca^2+, 4 mM KCl solution.

Data set [3] concerns the target T2, heteromeric channels containing rMiRP1 (Homo sapiens, UniProt Q12809).
T2 construct: expressed in transfected cells; host or cells: Xenopus laevis oocytes, cRNA injection
As to the kind of experiment: Ca2+ treated as blocking ion, rMiRP1/HERG channels in oocytes, protocols 1 and 2. As to conditions: rMiRP1/HERG vs HERG. The class given is cell-based, rat. Here is the method: (§2) Raw data are shown without leak correction. […] All experiments were performed at 22° C.

The target of data set [4] is T1, HERG channels. As to the kind of experiment: Ca2+ treated as blocking ion, HERG channels in oocytes, protocols 1 and 2. The settings on record: −100 mV, read-out: apparent equilibrium inhibition constant (Ki). Also on record: expressed in transfected cells; host or cells: CHO cells. The data set is classed as cell-based. As for the experimental part:
as §2

For orientation: IC50 means the concentration needed to halve the response being measured. Lower therefore signals higher potency.

For the compound `Cc1cccc(CCN2CCC(C(=O)c3ccc(NS(C)(=O)=O)cc3)CC2)n1` [E-4031], the Ki on Native IKr channels was 0.0103 µM.

On to `CC[C@H]1OC(=O)[C@H](C)[C@@H](O[C@H]2C[C@@](C)(OC)[C@@H](O)[C@H](C)O2)[C@H](C)[C@@H](O[C@@H]2O[C@H](C)C[C@H](N(C)C)[C@H]2O)[C@](C)(OC)C[C@@H](C)C(=O)[C@H](C)[C@@H](O)[C@]1(C)O` [clarithromycin], for which the IC50 against HERG channels [1] was 750 ± 310 µM; in data set [2], 720 ± 180 µM. In addition, the Ki was 590 ± 100 µM in data set [2]; 240 ± 40 µM on Q9E-hMiRP1 channels (CHO cells, 1 mM Ca2+, 4 mM KCl); 200 ± 70 µM on Q9E-hMiRP1 channels (bath K+ reduced to 1 mM, n=6 cells). The “shift of V1/2 to more positive potentials” value is reported as 10 mV in data set [2] (human, pH 7.6) and 10 mV on Q9E-hMiRP1 channels. Further, at Q9E-hMiRP1 channels, the “sensitivity to the drug relative to wild type channels” value is on record as 3 fold.

Regarding `[Ca+2]` [Ca^2+], the “apparent Ki relative to HERG channels, fold lower” value in data set [3] is approximately 3 fold. Moreover, the Ki at HERG channels [4] was 290 ± 20 µM.

The values are drawn from patent US6864364B1, “MinK-related genes, formation of potassium channels and association with cardiac arrhythmia” (priority 1999, dated 2005).
